Source: the NIST ThermoML archive (doi:10.1016/j.tca.2018.08.005)
± gives the expanded uncertainty stated by the source.

Columns and labels:
[1] = Crystal; DTA
[2] = Molar enthalpy of transition or fusion; details: Crystal; DSC

With `O.O.O.O.O.O.O.O.O.O.O=S(=O)([O-])[O-].[Na+].[Na+]` [sodium sulfate decahydrate] the Normal melting temperature [1] was 35.00 ± 5 °C and the “Molar enthalpy of transition or fusion” value [2] was 18 ± 1.84 kcal/mol.
